Experimental data: patent US12590294B2, “Process for producing cardiomyocytes” (Oxford University Innovation Limited, priority 2020, dated 2026)

Tests used:
[1] = system: hiPSC derived atrial cardiomyocytes; assay: Ca2+ transient imaging (Fluo4 optical mapping) with adrenergic agonists and antagonists; type: cell-based, human
Procedure: (§1) Optical mapping experiments were carried out after the cells started to contract. The responsiveness of the derived CMs in the experimental group to β and α adrenergic receptor agonists and antagonists was measured. Intracellular calcium transients were analysed using a 128×128 EMCCD camera (Photometrics, Tucson, USA). The derived CMs were pre-loaded with 1 μM Fluo4 (Molecular Probes by Life Technologies) dissolved in DMSO for 15 min at 37° C. in CMM. Calcium transients of the derived CMs were first recorded without the addition of the drugs as control. Recordings were then taken at 0 min, 5 min, 10 min and 15 min after 100 nM Isoprenaline (ISO) treatment. Using the same method, the responsiveness of the derived CMs in the experimental group to 10 μM Phenylephrine (PE) treatment was tested. […] Recordings were taken in the same way as described above. Similarly, the cells were pre-treated with 1 μM Prazosin dissolved in Fluo4 loading solution before a treatment of 10 μM PE. Metamorph was used to take the recordings, and 4000 or 8000 frames were taken for each recording, with a frame rate of 100 Hz (for 4000 frames) or 333.33 Hz (for 8000 frames). Regions of interest were selected using ImageJ. Raw traces were analysed and baseline corrections were conducted using Clampfit. Calcium transient amplitude change was calculated based on averaged trace. Part of the analysis was performed using custom MATLAB algorithms. To calculate beat-to-beat CaT50, the mean signal was segmented into individual beats. Representative regions were defined as two 16 by 16 pixel regions.
as §1, with “β and a adrenergic receptor” for “β and α adrenergic receptor”, “traces were analyzed and baseline” for “traces were analysed and baseline”, “was performed by the collaborator group from University of Birmingham using custom” for “was performed using custom”
We also tested whether hiPSC derived atrial cardiomyocytes responded to adrenoceptor stimulation by a or p adrenoceptor agonists. The presence of a functional al-adrenoceptor signaling pathway was first tested by exposure of hiPSC derived atrial cardiomyocytes to phenylephrine, which in adult atrial CMs increases the amplitude of Ca^2+ transients. Phenylephrine is an al-adrenoceptor agonist coupled to Gq and the mechanism of increase in Ca^2+ transient amplitude is associated with an increase cellular IP3 levels. Atrial cardiomyocytes from Days 25-30 post initiation of differentiating human iPSC derived atrial cardiomyocytes were used to assess the effect of phenylephrine on Ca^2+ transient amplitude. […]

[2] = system: monolayer HiPSC-AM sheets; assay: Optical mapping of monolayer HiPSC-AM sheets, adrenergic stress induced CaT alternans; type: cell-based, human; settings: 100 nM ISO; regular pacing at 0.5-1 Hz
Procedure: Optical mapping experiments were carried out after the cells started to contract. The responsiveness of the derived CMs in the experimental group to β and a adrenergic receptor agonists and antagonists was measured. Intracellular calcium transients were analysed using a 128×128 EMCCD camera (Photometrics, Tucson, USA). The derived CMs were pre-loaded with 1 μM Fluo4 (Molecular Probes by Life Technologies) dissolved in DMSO for 15 min at 37° C. in CMM. Calcium transients of the derived CMs were first recorded without the addition of the drugs as control. Recordings were then taken at 0 min, 5 min, 10 min and 15 min after 100 nM Isoprenaline (ISO) treatment. Using the same method, the responsiveness of the derived CMs in the experimental group to 10 μM Phenylephrine (PE) treatment was tested. In adrenergic receptor antagonist tests, the cells were pre-treated with 600 nM CGP20712A (CGP) (Sigma) dissolved in Fluo4 loading solution prior to 100 nM ISO treatment. Recordings were taken in the same way as described above. Similarly, the cells were pre-treated with 1 μM Prazosin dissolved in Fluo4 loading solution before a treatment of 10 μM PE. […] Raw traces were analyzed and baseline corrections were conducted using Clampfit. Calcium transient amplitude change was calculated based on averaged trace. […]

CC(C)NCC(O)c1ccc(O)c(O)c1 (centres unmarked) [isoproterenol]
increase in the amplitude of Ca2+ transients ([1]; isoproterenol 100 nM, n=5 batch of cells): 26±5%
effect on the amplitude of Ca2+ transients when CGP20712A was present ([1]; isoproterenol with CGP20712A (300 nM) present, n=5 batch of cells): without effect
CaT alternans [2]: occurred

COc1cc2nc(N3CCN(C(=O)c4ccco4)CC3)nc(N)c2cc1OC [prazosin]
effect on the amplitude of Ca2+ transients, antagonist by itself ([1]; 1 μM prazosin alone): no effect
effects of adrenergic stimulation by 10 uM PE after antagonist pre-treatment ([1]; 1 uM prazosin pre-treated, recorded 10 min after 10 uM PE): abolished

Cn1cc(C(F)(F)F)nc1-c1ccc(OCC(O)CNCCOc2ccc(O)c(C(N)=O)c2)cc1 (centres unmarked) [CGP20712A]
effects of adrenergic stimulation after β-adrenergic antagonist pre-treatment ([1]; 600 nM GCP pre-treated, recorded 10 min after 10 uM PE (so in the source)): abolished
effect on the amplitude of Ca2+ transients, antagonist by itself ([1]; CGP20712A 300 nM alone): no effect

CNC[C@H](O)c1cccc(O)c1 [phenylephrine]
effect on Ca2+ transient decay time ([1]; 10 μM phenylephrine): no effect
effect on Ca2+ transient rise time ([1]; 10 μM phenylephrine): no effect
change in the amplitude of Ca2+ transients in the presence of prazosin ([1]; 10 μM phenylephrine in the presence of prazosin, n=5 batch of cells): did not cause any significant change
increase in Ca2+ transient amplitude ([1]; 10 μM phenylephrine, fluo-4 fluorescence, Days 25-30, n=5 batch of cells): 28±10%
